# Data taken from US12691094B2, “Use of Crassifolin A in preparation of drug for promoting mitophagy and treating neurodegenerative diseases” (JINAN UNIVERSITY, priority 2021, dated 2026).
# Experiments:
# LC3B = test: Western blot of LC3B in hSY5Y cells; format: cell-based; details: JGX-1 10 μmol/L, 24 h
# Source text: • a. […]
# pTAU (202) = test: Western blot of phosphorylated Tau in hSY5Y cells; format: cell-based; details: JGX-1 10 μmol/L, 24 h
# Source text: • a. […]
# Hela-mt-Keima cells [1] = test: Flow cytometry of Hela-mt-Keima cells for screening a mitophagy drug; format: cell-based; details: 10 μM JGX-1+10 μM FCCP (FIG. 1 legend: JGX-1 10 μM)
# Source text: (§1) The Keima fluorescent protein derived from anthozoan has a pH value-dependent bimodal excitation spectrum, that is, Keima can be excited to emit green fluorescence at neutral pH and acidic pH and red fluorescence under the excitation of light with a wavelength of 440 nm and 586 nm, respectively. Since mitochondria that undergo autophagy eventually enter acidic lysosomes, Keima with the mitochondrial localization (mitocondrial Keima, mt-Keima) can indicate the mitochondria that enter the lysosomes via the autophagic pathway. The specific procedure of this experiment is as follow:
# Inoculation of Hela-mt-Keima cells into a 24-well plate at a density of 5×10^4, and then adding 1 mL of DMEM medium containing 10% (v/v) fetal bovine serum (FBS) to them to culture for 24 h; after 24 h, respectively adding 0.1% (v/v) DMSO (dimethyl sulfoxide), with DMSO (10 μM) as a solvent control group (DMSO), 10 μM of mitochondrial uncoupling agent (FCCP) (sigma) as a positive drug control group, and 10 μM JGX-1+10 μM FCCP as an experimental group, each group having 3 replicates; collecting cells on the third day by centrifugation at 1000×g for 3 min, resuspending in 0.5 mL of PBS buffer, sieving at 40 μm on the machine, collecting 5×10^4 cells by flow cytometry, recording the collection time, 405 nm/Qdot605-A, 561 nm/PE-Texas Red-A, and calculating MI=561/405+561.
# Hela-mt-Keima cells [2] = test: Detection of mitophagy in Hela-mt-Keima cells by confocal microscopy; format: cell-based; details: 10 μM JGX-1, 8 h
# Source text: as §1, with “is, Keima at neutral pH and acidic pH can be” for “is, Keima can be”, “green fluorescence and red” for “green fluorescence at neutral pH and acidic pH and red”, “mitochondrial localization (mitochondrial Keima, mt-Keima)” for “mitochondrial localization (mitocondrial Keima, mt-Keima)”, “is as follows:” for “is as follow:”
# Inoculation of Hela-mt-Keima cells into 12 laser confocal cell culture dishes at a density of 1×10^4, and then adding 1 mL of DMEM medium containing 10% (v/v) FBS; after 5 h, changing the solution, and dividing into a solvent control group (DMSO), a positive drug control group (10 μM FCCP), an experimental group 1 (10 μM JGX-1+10 μM FCCP) and an experimental group 2 (10 μM JGX-1), with 3 replicates in each group; incubating cells in a 5% (v/v) CO2 cell culture incubator at 37° C.; after 8 h, observing the changes in the excitation fluorescence signals of the 458 nm channel (indicating Keima at neutral pH) and the 561 nm channel (indicating Keima at acidic pH) under a laser confocal microscope, randomly selecting 3 fields of view to take photos, and then statistically plotting.
# Tau model mice = test: Morris water maze test of learning memory; format: in vivo; details: 10-month-old Tau model mice, oral 20 mg/kg for 3 consecutive months
smiles,measurement,setting,value
"COC(=O)[C@]1(C)CCCC2=C1CC[C@@H](C)[C@]2(C)CCC1=CC(=O)OC1 [JGX-1, Crassifolin A]",expression of autophagic LC3B,LC3B,enhanced
same,expression of phosphorylated Tau,pTAU (202),inhibited
same,"mitophagy (flow cytometry, MI=561/405+561)",Hela-mt-Keima cells [1],enhance mitophagy
same,mitophagy (confocal live cell imaging),Hela-mt-Keima cells [2],enhance mitophagy
same,dementia symptoms in the model mice,Tau model mice,alleviated
same,learning memory of AD model mice,Tau model mice,improved effect
